According to patent US20230085307A1, “PYRIDAZINONE COMPOUND AND HERBICIDE” (NISSAN CHEMICAL CORPORATION, priority 2019, published 2023):

Columns and labels:
southern crabgrass = test: Test Example 5: herbicidal effect by foliage application, plastic box (Table 20, symbol F); format: in vivo, southern crabgrass (Digitaria ciliaris); settings: foliage application after 14-day growth, evaluated three weeks after application; for Herbicidal effect by foliage application, F: southern crabgrass: amount of applied herbicide 320 g/ha
Outline: (§1)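 Plants were sown into sterilized diluvial soil under about 1.5 cm cover and kept in a greenhouse at 25° C. to 30° C. Fourteen days on, foliage received an even spray of the diluted emulsion. Herbicidal or crop effect was judged three weeks afterwards.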

velvetleaf = test: Test Example 5: herbicidal effect by foliage application, plastic box (Table 20, symbol M); format: in vivo, velvetleaf (Abutilon theophrasti); settings: foliage application after 14-day growth, evaluated three weeks after application; for Herbicidal effect by foliage application, M: velvetleaf: amount of applied herbicide 320 g/ha
Outline: as §1

barnyard grass [1] = test: Test Example 3: herbicidal effect by foliage application, Wagner pot (Table 18, symbol H); format: in vivo, barnyard grass (Echinochloa crus-galli); settings: 320 g/ha
Outline: (§2)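 Plants were sown in alluvial soil held under 0.1–0.5 cm standing water and grown 14 days in a greenhouse at 25–30 °C. An emulsifiable formulation, water-diluted to the set dose, was then sprayed onto the foliage, and effects were scored three weeks later using previously defined criteria.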

false cleavers = test: Test Example 5: herbicidal effect by foliage application, plastic box (Table 20, symbol Q); format: in vivo, false cleavers (Galium spurium); settings: foliage application after 14-day growth, evaluated three weeks after application; for Herbicidal effect by foliage application, Q: false cleavers: amount of applied herbicide 320 g/ha
Outline: as §1

green foxtail = test: Test Example 5: herbicidal effect by foliage application, plastic box (Table 20, symbol G); format: in vivo, green foxtail (Setaria viridis); settings: foliage application after 14-day growth, evaluated three weeks after application; for Herbicidal effect by foliage application, G: green foxtail: amount of applied herbicide 320 g/ha
Outline: as §1

redroot pigweed = test: Test Example 5: herbicidal effect by foliage application, plastic box (Table 20, symbol N); format: in vivo, redroot pigweed (Amaranthus retroflexus); settings: foliage application after 14-day growth, evaluated three weeks after application; for Herbicidal effect by foliage application, N: redroot pigweed: amount of applied herbicide 320 g/ha
Outline: as §1

barnyard grass [2] = test: Test Example 5: herbicidal effect by foliage application, plastic box (Table 20, symbol H); format: in vivo, barnyard grass (Echinochloa crus-galli); settings: foliage application after 14-day growth, evaluated three weeks after application; for Herbicidal effect by foliage application, H: barnyard grass: amount of applied herbicide 320 g/ha
Outline: as §1

persian speedwell = test: Test Example 5: herbicidal effect by foliage application, plastic box (Table 20, symbol R); format: in vivo, Persian speedwell (Veronica persica); settings: foliage application after 14-day growth, evaluated three weeks after application; for Herbicidal effect by foliage application, R: persian speedwell: amount of applied herbicide 320 g/ha
Outline: as §1

lambsquarters = test: Test Example 5: herbicidal effect by foliage application, plastic box (Table 20, symbol O); format: in vivo, lambsquarters (Chenopodium album); settings: foliage application after 14-day growth, evaluated three weeks after application; for Herbicidal effect by foliage application, O: lambsquarters: amount of applied herbicide 320 g/ha
Outline: as §1

windgrass = test: Test Example 5: herbicidal effect by foliage application, plastic box (Table 20, symbol L); format: in vivo, windgrass (Apera spica-venti); settings: foliage application after 14-day growth, evaluated three weeks after application; for Herbicidal effect by foliage application, L: windgrass: amount of applied herbicide 320 g/ha
Outline: as §1

Chinese sprangletop = test: Test Example 3: herbicidal effect by foliage application, Wagner pot (Table 18, symbol D); format: in vivo, chinese sprangletop (Leptochloa chinensis); settings: 320 g/ha
Outline: as §2

Italian ryegrass = test: Test Example 5: herbicidal effect by foliage application, plastic box (Table 20, symbol K); format: in vivo, Italian ryegrass (Lolium multiflorum); settings: foliage application after 14-day growth, evaluated three weeks after application; for Herbicidal effect by foliage application, K: Italian ryegrass: amount of applied herbicide 320 g/ha
Outline: as §1

blackgrass = test: Test Example 5: herbicidal effect by foliage application, plastic box (Table 20, symbol J); format: in vivo, blackgrass (Alopecurus myosuroides); settings: foliage application after 14-day growth, evaluated three weeks after application; for Herbicidal effect by foliage application, J: blackgrass: amount of applied herbicide 320 g/ha
Outline: as §1

rice flat sedge = test: Test Example 3: herbicidal effect by foliage application, Wagner pot (Table 18, symbol E); format: in vivo, rice flat sedge (Cyperus iria); settings: 320 g/ha
Outline: as §2

chickweed = test: Test Example 5: herbicidal effect by foliage application, plastic box (Table 20, symbol P); format: in vivo, common chickweed (Stellaria media); settings: foliage application after 14-day growth, evaluated three weeks after application; for Herbicidal effect by foliage application, P: chickweed: amount of applied herbicide 320 g/ha
Outline: as §1

wild oat = test: Test Example 5: herbicidal effect by foliage application, plastic box (Table 20, symbol I); format: in vivo, wild oat (Avena fatua); settings: foliage application after 14-day growth, evaluated three weeks after application; for Herbicidal effect by foliage application, I: wild oat: amount of applied herbicide 320 g/ha
Outline: as §1

SMILES | herbicidal effect on barnyard grass (H) (barnyard grass [1]) | herbicidal effect on Chinese sprangletop (D) (Chinese sprangletop) | herbicidal effect on rice flat sedge (E) (rice flat sedge) | Herbicidal effect by foliage application, F: southern crabgrass (southern crabgrass) | Herbicidal effect by foliage application, M: velvetleaf (velvetleaf) | Herbicidal effect by foliage application, Q: false cleavers (false cleavers) | Herbicidal effect by foliage application, G: green foxtail (green foxtail) | Herbicidal effect by foliage application, N: redroot pigweed (redroot pigweed) | Herbicidal effect by foliage application, H: barnyard grass (barnyard grass [2]) | Herbicidal effect by foliage application, R: persian speedwell (persian speedwell) | Herbicidal effect by foliage application, O: lambsquarters (lambsquarters) | Herbicidal effect by foliage application, L: windgrass (windgrass) | Herbicidal effect by foliage application, K: Italian ryegrass (Italian ryegrass) | Herbicidal effect by foliage application, J: blackgrass (blackgrass) | Herbicidal effect by foliage application, P: chickweed (chickweed) | Herbicidal effect by foliage application, I: wild oat (wild oat) | also measured
COc1cccc(-c2sc3c(Cl)cccc3c2-c2c(O)c(C)nn(C)c2=O)c1 [4-064] | 4 (Herbicidal rate of 70% or more and less than 90%) | 3 (Herbicidal rate of 40% or more and less than 70%) | 4 (Herbicidal rate of 70% or more and less than 90%) | – | – | – | – | – | – | – | – | – | – | – | – | – | herbicidal effect on F: southern crabgrass (evaluation grade 0-5) (southern crabgrass; 320 g/ha): 1 (Herbicidal rate of 5% or more and less than 20%); herbicidal effect on M: velvetleaf (evaluation grade 0-5) (velvetleaf; 320 g/ha): 3 (Herbicidal rate of 40% or more and less than 70%); herbicidal effect on Q: false cleavers (evaluation grade 0-5) (false cleavers; 320 g/ha): 1 (Herbicidal rate of 5% or more and less than 20%); herbicidal effect on G: green foxtail (evaluation grade 0-5) (green foxtail; 320 g/ha): 3 (Herbicidal rate of 40% or more and less than 70%); herbicidal effect on N: redroot pigweed (evaluation grade 0-5) (redroot pigweed; 320 g/ha): 5 (Herbicidal rate of 90% or more (almost completely withered)); herbicidal effect on H: barnyard grass (evaluation grade 0-5) (barnyard grass [2]; 320 g/ha): 1 (Herbicidal rate of 5% or more and less than 20%); herbicidal effect on R: persian speedwell (evaluation grade 0-5) (persian speedwell; 320 g/ha): 5 (Herbicidal rate of 90% or more (almost completely withered)); herbicidal effect on O: lambsquarters (evaluation grade 0-5) (lambsquarters; 320 g/ha): 3 (Herbicidal rate of 40% or more and less than 70%); herbicidal effect on L: windgrass (evaluation grade 0-5) (windgrass; 320 g/ha): 5 (Herbicidal rate of 90% or more (almost completely withered)); herbicidal effect on K: Italian ryegrass (evaluation grade 0-5) (Italian ryegrass; 320 g/ha): 3 (Herbicidal rate of 40% or more and less than 70%); herbicidal effect on J: blackgrass (evaluation grade 0-5) (blackgrass; 320 g/ha): 0 (Herbicidal rate of 5% or less (almost no effect)); herbicidal effect on P: chickweed (evaluation grade 0-5) (chickweed; 320 g/ha): 5 (Herbicidal rate of 90% or more (almost completely withered)); herbicidal effect on I: wild oat (evaluation grade 0-5) (wild oat; 320 g/ha): 0 (Herbicidal rate of 5% or less (almost no effect))
CSc1ccccc1-c1sc2c(Cl)cccc2c1-c1c(O)c(C)nn(C)c1=O [4-086] | 4 (Herbicidal rate of 70% or more and less than 90%) | 3 (Herbicidal rate of 40% or more and less than 70%) | 3 (Herbicidal rate of 40% or more and less than 70%) | 0 (Herbicidal rate of 5% or less (almost no effect)) | 3 (Herbicidal rate of 40% or more and less than 70%) | 1 (Herbicidal rate of 5% or more and less than 20%) | 3 (Herbicidal rate of 40% or more and less than 70%) | 4 (Herbicidal rate of 70% or more and less than 90%) | 1 (Herbicidal rate of 5% or more and less than 20%) | 5 (Herbicidal rate of 90% or more (almost completely withered)) | 3 (Herbicidal rate of 40% or more and less than 70%) | 4 (Herbicidal rate of 70% or more and less than 90%) | 0 (Herbicidal rate of 5% or less (almost no effect)) | 0 (Herbicidal rate of 5% or less (almost no effect)) | 5 (Herbicidal rate of 90% or more (almost completely withered)) | 0 (Herbicidal rate of 5% or less (almost no effect)) | –
CCSc1ccccc1-c1sc2c(C)cccc2c1-c1c(O)c(C)nn(C)c1=O [4-120] | 2 (Herbicidal rate of 20% or more and less than 40%) | 3 (Herbicidal rate of 40% or more and less than 70%) | 2 (Herbicidal rate of 20% or more and less than 40%) | 0 (Herbicidal rate of 5% or less (almost no effect)) | 0 (Herbicidal rate of 5% or less (almost no effect)) | 0 (Herbicidal rate of 5% or less (almost no effect)) | 0 (Herbicidal rate of 5% or less (almost no effect)) | 0 (Herbicidal rate of 5% or less (almost no effect)) | 0 (Herbicidal rate of 5% or less (almost no effect)) | 5 (Herbicidal rate of 90% or more (almost completely withered)) | 0 (Herbicidal rate of 5% or less (almost no effect)) | 0 (Herbicidal rate of 5% or less (almost no effect)) | 0 (Herbicidal rate of 5% or less (almost no effect)) | 0 (Herbicidal rate of 5% or less (almost no effect)) | 5 (Herbicidal rate of 90% or more (almost completely withered)) | 0 (Herbicidal rate of 5% or less (almost no effect)) | –
